In publication PMC13372681, “A natural depsipeptide antibiotic binds the E-site of the bacterial ribosome” (Nature, 2026):
In brackets after ≈: the same amount, converted by molar mass. Where two headings read alike, the source gives them in different places. Where a SMILES comes first, the peptide text is derived from it. Bridges are numbered along the chain shown (N, C = ends). [ ]: non-standard residue; d: D form. dOrn = NCCC[C@@H](N)C(=O)O

Tests used:
[1] = Acute tolerability in mice; assay type: in vivo; conditions: doses up to 220 mg kg^−1 per day (divided into four doses over 20 hours, subcutaneous)
[2] = system: Bifidobacterium breve GC96; test: MIC, anaerobic gut bacteria; assay type: cell-based; conditions: gut isolate, BHI + L-cysteine, haemin, vitamin K, 37 °C
S. aureus USA 300 = conditions: broth microdilution, MHBII
[3] = mouse plasma 1:1 with PBS pH 7.4, 10 µM, 37 °C, 0–120 min, LC–MS, % remaining; duplicate, two biological replicates
[4] = system: Lactobacillus plantarum GC4; test: MIC, anaerobic gut bacteria; assay type: cell-based; conditions: gut isolate, BHI + L-cysteine, haemin, vitamin K, 37 °C
[5] = system: M. bovis BCG Pasteur ATCC 35734; conditions: Middlebrook 7H9 + 10% OADC + 0.05% Tween-80
in vivo = conditions: female, ICR CD-1, mouse, plasma, sc; for level at 8 h / level at 24 h: below limit of quantification
[6] = system: Candida albicans ATCC 90028
Blautia obeum GC925 = test: MIC, anaerobic gut bacteria; assay type: cell-based; conditions: gut isolate, BHI + L-cysteine, haemin, vitamin K, 37 °C
[7] = human plasma 1:1 with PBS pH 7.4, 10 µM, 37 °C, 0–120 min, LC–MS, % remaining; duplicate, two biological replicates
HepG2 cells = test: Mammalian cytotoxicity, Cell Titer Glo; assay type: cell-based, human; conditions: 48 h exposure, DMEM + 10% FBS, 1% DMSO, Cell Titer Glo 2.0 luminescence
Description: (§1) Mammalian culture was performed in Dulbecco Modified Eagle Medium (DMEM) supplemented with 10% fetal bovine serum (FBS), 2 mM L-glutamine, 100 units ml^−1 penicillin and 100 µg ml^−1 streptomycin. HEK293 cells (ATCC CRL-1573; generation 6) were seeded at 7,500 cells per well and HepG2 cells (ATCC HB8065; generation 18) were seeded at 4,000 cells per well in 384-well tissue culture-treated white plates in 50 µl DMEM and incubated for 18 h at 37 °C in the presence of 5% CO2. After 18 h of incubation, 500 nl of the compound and DMSO (1% final concentration) were added to the cells using a Labcyte Echo acoustic dispenser (Beckman Coulter). Cells were further incubated for 48 h and after that cell viability was assessed using Promega Cell Titer Glo 2.0 reagent (Fisher Scientific). Before incubating the plates at room temperature for 10 min, 50 µl of Cell Titer Glo was added directly to the medium. The plates were then shaken for 2 min. The Neo2 plate reader (Biotek) was used to read the luminescence through luminescent fibre. Cells that were either not treated or solely treated with DMSO were used as a control.

HEK293 cells = test: Mammalian cytotoxicity, Cell Titer Glo; assay type: cell-based, human; conditions: 48 h exposure, DMEM + 10% FBS, 1% DMSO, Cell Titer Glo 2.0 luminescence
Description: as §1

E. coli C1508 = conditions: broth microdilution, MDR clinical isolate
[8] = system: M. avium subsp. avium ATCC 25291; conditions: Middlebrook 7H9 + 10% OADC + 0.05% Tween-80
[9] = system: Bacteroides fragilis GC73; test: MIC, anaerobic gut bacteria; assay type: cell-based; conditions: gut isolate, BHI + L-cysteine, haemin, vitamin K, 37 °C
E. coli ΔtolC ΔbamB = conditions: broth microdilution
E. coli C1507 = conditions: broth microdilution, Ca+ MHB Medium; MDR clinical isolate
M. tuberculosis H37Ra = conditions: Middlebrook 7H9 + 10% OADC + 0.05% Tween-80
S. enterica ATCC 14028 = conditions: broth microdilution, Ca+ MHB Medium
[10] = 50 mg/kg, Plasma concentration MKM, s.c. 50 mg/kg, Mouse 2
[11] = 50 mg/kg, Plasma concentration MKM, s.c. 50 mg/kg, Mouse 3
[12] = 50 mg/kg, Plasma concentration MKM, s.c. 50 mg/kg, Mouse 1
[13] = broth microdilution, Ca+ MHB Medium

SMILES: C[C@@H](O)[C@@H]1NC(=O)[C@@H](CCCNC(=N)N)NC(=O)[C@@H](CCCNC(=N)N)NC(=O)[C@@H](CC(N)=O)NC(=O)[C@@H](NC(=O)[C@@H](Cc2ccccc2)NC(=O)[C@@H](CCCN)NC(=O)[C@H](N)CCCNC(=N)N)[C@@H](C)OC(=O)[C@H](Cc2c[nH]cn2)NC1=O [MKM-A, manikomycin] (H-[dR][dOrn][dF]T[dN][dR][dR]TH; ester 4-C)
- MIC (Bacillus subtilis 168): >64 µg/mL
- MIC (E. coli BW25113; BW25113): 4 µg/mL (≈ 3.38 µM)
- MIC (E. coli BW25113; broth microdilution, Ca+ MHB Medium (cation-adjusted MHB)): 32 µg/mL (≈ 27 µM)
- acute tolerability [1]: acceptable acute tolerability
- MIC [2]: 256 µg/mL
- MIC (S. aureus USA 300): 128 µg/mL (≈ 108 µM)
- stability in plasma [3]: excellent stability
- MIC [4]: >256 µg/mL
- MIC [5]: 2 µg/mL
- Cmax (in vivo; 50 mg kg^−1): 9130 ng/mL
- half-life (in vivo; 50 mg kg^−1): ~36 min
- level at 0.25 h (in vivo; 50 mg/kg, Plasma concentration MKM, s.c. 50 mg/kg, Mouse 1, linear range 1.6–50 µg/ml): 6650 ng/mL
- level at 0.25 h (in vivo; [10]): 8580 ng/mL
- level at 0.25 h (in vivo; [11]): 9540 ng/mL
- level at 0.5 h (in vivo; 50 mg/kg, Plasma concentration MKM, s.c. 50 mg/kg, Time 0.5 (h), Mouse 3): 9170 ng/mL
- level at 1 h (in vivo; [12]): 6890 ng/mL
- level at 1 h (in vivo; [10]): 9080 ng/mL
- level at 1 h (in vivo; [11]): 6930 ng/mL
- level at 2 h (in vivo; [12]): 1470 ng/mL
- level at 2 h (in vivo; [10]): 1060 ng/mL
- level at 2 h (in vivo; [11]): 2600 ng/mL
- level at 8 h (in vivo; [12]): 386 ng/mL
- level at 8 h (in vivo; [10]): 55.8 ng/mL
- level at 8 h (in vivo; [11]): 108 ng/mL
- level at 24 h (in vivo; [12]): 71.5 ng/mL
- level at 24 h (in vivo; [10]): 27.3 ng/mL
- level at 24 h (in vivo; [11]): 68 ng/mL
- MIC [6]: >64 µg/mL
- MIC (Blautia obeum GC925): >256 µg/mL
- MIC (P. aeruginosa PAO1; PAO1): >64 µg/mL
- MIC (P. aeruginosa PAO1; [13]): >128 µg/mL
- MIC (P. aeruginosa PAO1; broth microdilution, MOPS Minimal Medium): >128 µg/mL
- stability in plasma [7]: excellent stability
- HepG2 (IC50) (HepG2 cells): >256 µg/mL
- HEK 293 (IC50) (HEK293 cells): >256 µg/mL
- MIC (E. coli C0617; C0617): 8 µg/mL (≈ 6.76 µM)
- MIC (E. coli C0617; broth microdilution, Ca+ MHB Medium, MDR clinical isolate): 32 µg/mL (≈ 27 µM)
- MIC (E. coli C1508; Ca+ MHB Medium): 32 µg/mL (≈ 27 µM)
- MIC (E. coli C1508; MOPS Minimal Medium): 16 µg/mL (≈ 13.5 µM)
- MIC (E. coli C1508; RPMI Medium): 4 µg/mL (≈ 3.38 µM)
- MIC [8]: 32 µg/mL
- MIC [9]: >256 µg/mL
- MIC (E. coli ΔtolC ΔbamB; Ca+ MHB Medium): 8 µg/mL (≈ 6.76 µM)
- MIC (E. coli ΔtolC ΔbamB; MOPS Minimal Medium): 2 µg/mL (≈ 1.69 µM)
- MIC (E. coli ΔtolC ΔbamB; RPMI Medium): 2 µg/mL (≈ 1.69 µM)
- MIC (E. coli C1507): 32 µg/mL (≈ 27 µM)
- MIC (A. baumanii ATCC 17978; ATCC 17978): 64 µg/mL (≈ 54.1 µM)
- MIC (A. baumanii ATCC 17978; [13]): >128 µg/mL
- MIC (S. aureus ATCC 29213): 64 µg/mL (≈ 54.1 µM)
- MIC (M. tuberculosis H37Ra): 4 µg/mL
- MIC (S. enterica ATCC 14028): 32 µg/mL (≈ 27 µM)
